Series [1] deals with Vero. The experiment in a line: cells. The following applies: Chlorocebus sabaeus, 48 h.
Description: Cytotoxicity against african green monkey Vero cells after 48 hrs by MTT assay
Series [2] in a line: physchem.
Description: Dissociation constant, pKa of the compound by UV-visible spectroscopy

Regarding `CN(C)CCCNc1c2ccccc2[n+](C)c2c1[nH]c1ccccc12`, it took 2.2 µM to reach half-maximal inhibition in series [1] (IC50). In addition, in series [2], the pKa was 11.9. On the same counts, the results for `CCN(CC)CCCC(C)Nc1c2ccccc2[n+](C)c2c1[nH]c1ccccc12` (configuration not stated) are 13 µM and 11.4.

In turn, `C[n+]1c2ccccc2c(NC2CCN(Cc3ccccc3)CC2)c2[nH]c3ccccc3c21` returned a concentration for half-maximal inhibition (IC50) in series [1] of 2.2 µM. The same molecule gave a pKa in series [2] of 11.5. `C[n+]1c2cc(Cl)ccc2c(NC2CCNCC2)c2[nH]c3cc(Cl)ccc3c21`: in series [1], 0.8 µM corresponded to half-maximal inhibition (IC50). In series [2], this molecule gave a pKa of 10.3. On the same counts, the results for `C[n+]1c2ccccc2c(NC2CCN(Cc3ccccc3O)CC2)c2[nH]c3ccccc3c21` are 2.6 µM and 11.6. Turning to `CCN(CC)c1c2ccccc2[n+](C)c2c1[nH]c1ccccc12`, in series [1], inhibition was half-maximal at 3 µM (IC50).

`CCN(CC)CCCNc1c2ccccc2[n+](C)c2c1[nH]c1ccccc12` showed an IC50 in series [1] of 2.5 µM. For the same molecule, in series [2], the pKa was found to be 11.6.

Regarding `C[n+]1c2ccccc2c(NCCCN2CCCCC2)c2[nH]c3ccccc3c21`, in series [1], the IC50 was found to be 2 µM. Besides, in series [2], the pKa came out at 11.7. In series [1], `C[n+]1c2ccccc2c(Nc2cccnc2)c2[nH]c3ccccc3c21` returned an IC50 of 2.6 µM. This molecule also returned a pKa in series [2] of 10.3.

`CN(C)CCNc1c2ccccc2[n+](C)c2c1[nH]c1ccccc12`: the half-maximal inhibitory concentration (IC50) in series [1] was determined as 5.5 µM. The molecule also yielded a pKa in series [2] of 11.6. For `C[n+]1c2ccccc2c(Nc2ccccc2)c2[nH]c3ccccc3c21`, in that order: 0.6 µM and 10.6.

For the molecule `C[n+]1c2cc(Cl)ccc2c(NC2CCNCC2)c2[nH]c3ccccc3c21`, in series [1], the 50% inhibitory concentration (IC50) was 4.4 µM. In addition, the pKa in series [2] came to 11.1. On the same counts, the results for `CCN(CC)CCCNc1c2ccc(Cl)cc2[n+](C)c2c1[nH]c1ccccc12` are 1.3 µM and 11.2.

For `CC(C)NCCCNc1c2ccccc2[n+](C)c2c1[nH]c1ccccc12`, in series [1], 3 µM corresponded to half-maximal inhibition (IC50). Further, the pKa in series [2] is 11.5. For `CC(CN(C)C)Nc1c2ccccc2[n+](C)c2c1[nH]c1ccccc12` (configuration not stated), in that order: 3 µM and 11.6. On the same counts, the results for `CN(C)CC(C)(C)CNc1c2ccccc2[n+](C)c2c1[nH]c1ccccc12` are 3 µM and 11.7. With `CCN(CC)CCNc1c2ccccc2[n+](C)c2c1[nH]c1ccccc12`, the IC50 in series [1] is 2.8 µM. This molecule came in with a pKa in series [2] of 11.6. As to `CC(C)CN1CCC(Nc2c3ccccc3[n+](C)c3c2[nH]c2ccccc23)CC1`, the IC50 in series [1] was determined as 5 µM. For the same molecule, the pKa in series [2] turned out to be 11.6. On the same counts, the results for `CCN(CC)Cc1ccc(Nc2c3ccccc3[n+](C)c3c2[nH]c2ccccc23)cc1O` are 0.8 µM and 10.8.

The IC50 is the concentration at which inhibition is half-maximal. High values mean weaker potency, low ones greater potency. A word on the pKa: it is the pH at which an ionisable group is half protonated. Lower therefore signals a group that gives up its proton readily.

Source of the values: ChEMBL document CHEMBL1287680, “C-11 diamino cryptolepine derivatives NSC748392, NSC748393, and NSC748394: anticancer profile and G-quadruplex stabilization” (Bioorg Med Chem Lett, 2010).
